Assay results: US8685982B2, “Thioamide, amidoxime and amidrazone derivatives as HIV attachment inhibitors” (priority 2011, dated 2014)
pEC50: −log10 of the molar value. Where two headings read alike, the source gives them in different places.

System: HIV-1 LAI envelope single-round infectious reporter virus
Assay: Single-round infectious HIV-1 LAI luciferase reporter virus infection of MT2 cells
Type: cell-based
Conditions: Human immunodeficiency virus 1, MT2, 72 h
Description: Virus Production • Human embryonic Kidney cell line, 293T (HEK 293T), was propagated in Dulbecco's Modified Eagle Medium (Invitrogen, Carlsbad, Calif.) containing 10% fetal bovine serum (FBS, Sigma, St. Louis, Mo.). The human T-cell leukemia cell MT2 (AIDS Research and Reference Reagent Program, Cat. 237) was propagated in RPMI 1640 (Invitrogen, Carlsbad, Calif.) containing 10% fetal bovine serum (FBS, Hyclone, Logan, Utah)
Virus Infection • Single-round infectious reporter virus was produced by co-transfecting HEK 293T cells with plasmide expressing the HIV-1 LAI envelope along with a plasmid containing an HIV-1 LAI proviral cDNA with the envelope gene replaced by a firefly luciferase reporter gene (Chen et al., Ref 41). Transfections were performed using lipofectAMINE PLUS reagent as described by the manufacturer (Invitrogen, Carlsbad, Calif.). Experimental Procedure • 1. MT2 cells were plated in black, 384 well plates at a cell density of 5×10^3 cells per well in 25 μl RPMI 1640 containing 10% FBS. • 2. Compound (diluted in dimethylsulfoxide and growth medium) was added to cells at 12.5 μl/well, so that the final assay concentration would be ≦50 nM. • 3. 12.5 μl of single-round infectious reporter virus in Dulbecco's Modified Eagle Medium was added to the plated cells and compound at an approximate multiplicity of infection (MOI) of 0.01, resulting in a final volume of 50 μl per well. • 4. Virus-infected cells were incubated at 37 degrees Celsius in a CO2 incubator and harvested 72 h after infection. • 5. Viral infection was monitored by measuring luciferase expression in the infected cells using a luciferase reporter gene assay kit (Steady-Glo, Promega, Madison, Wis.) as described by the manufacturer. Luciferase activity was then quantified by measuring luminescence using an EnVision Multilabel Plate Readers (PerkinElmer, Waltham, Mass.). • 6. The percent inhibition for each compound was calculated by quantifying the level of luciferase expression in cells infected in the presence of each compound as a percentage of that observed for cells infected in the absence of compound and subtracting such a determined value from 100. • 7. An EC50 provides a method for comparing the antiviral potency of the compounds of this disclosure. The effective concentration for fifty percent inhibition (EC50) was calculated with the Microsoft Excel Xlfit curve fitting software. For each compound, curves were generated from percent inhibition calculated at 10 different concentrations by using a four parameter logistic model (model 205). Table 1 is the key for the data in Table 2.

[1] = read-out: EC50 Group from Table 1

| Compound | pEC50 | pEC50 [1] |
| --- | --- | --- |
| O=C(C(=O)N1CCN(C(=NO)c2ccccc2)CC1)c1c[nH]c2c(-n3ccnn3)ncc(F)c12 [Compound 2005, 1-(4-fluoro-7-(1H-1,2,3-triazol-1-yl)-1H-pyrrolo[2,3-c]pyridin-3-yl)-2-(4-((hydroxyimino)(phenyl)methyl)piperazin-1-yl)ethane-1,2-dione] | 9.92 | > 6.30 |
| CN(C)N=C(c1ccccc1)N1CCN(C(=O)C(=O)c2c[nH]c3c(-n4ccnn4)ncc(F)c23)CC1 [Compound 1003] |  | > 6.30 |
| O=C(C(=O)N1CCN(C(=S)c2ccccc2)CC1)c1c[nH]c2c(-n3ccnn3)ncc(F)c12 [Compound 2001, 1-(4-fluoro-7-(1H-1,2,3-triazol-1-yl)-1H-pyrrolo[2,3-c]pyridin-3-yl)-2-(4-(phenylcarbonothioyl)piperazin-1-yl)ethane-1,2-dione] | 10.57 | > 6.30 |
| CON=C(c1ccccc1)N1CCN(C(=O)C(=O)c2c[nH]c3c(-n4ccnn4)ncc(F)c23)CC1 [Compound 2002, 1-(4-fluoro-7-(1H-1,2,3-triazol-1-yl)-1H-pyrrolo[2,3-c]pyridin-3-yl)-2-(4-((methoxyimino)(phenyl)methyl)piperazin-1-yl)ethane-1,2-dione] |  | > 6.30 |
| CN(C)c1ccc(C(=S)N2CCN(C(=O)C(=O)c3c[nH]c4cccc(F)c34)CC2)cc1 [Compound 1001] |  | < 6.30 |
| CON=C(c1ccccc1)N1CCN(C(=O)C(=O)c2c[nH]c3c(-n4cnc(C)n4)ncc(OC)c23)CC1 [Compound 2004, 1-(4-methoxy-7-(3-methyl-1H-1,2,4-triazol-1-yl)-1H-pyrrolo[2,3-c]pyridin-3-yl)-2-(4-((methoxyimino)(phenyl)methyl)piperazin-1-yl)ethane-1,2-dione] | 10.72 | > 6.30 |
